Columns and labels:
[1] = target: T1, cdc7/Dbf4 (Homo sapiens, UniProt O00311); experiment: Determination of cdc7 kinase inhibitory activity (HTRF Transcreener ADP assay); type: biochemical; conditions: test compound 1 μM; 1.0 μM ATP, 10 μg/ml MCM2, 0.1 μg/ml cdc7/Dbf4, 90 min at room temperature; read-out: Inhibitory rate (%) at 1 μM
T1 construct: Full-length cdc7 co-expressed with full-length Dbf4; purchased Carna Bioscience, Inc. (Kobe, Japan)
Procedure: Full-length cdc7 co-expressed with full-length Dbf4 was purchased from Carna Bioscience, Inc. (Kobe, Japan). Homogeneous time-resolved fluorescence (HTRF) Transcreener ADP assay (Cisbio Inc., MA., U.S.A.) was used for detecting cdc7/Dbf4 kinase activity. Reactions were performed in kinase buffer (20 mM HEPES, pH 7.5, 10 mM magnesium acetate, 1 mM dithiothreitol) containing 1.0 μM ATP, 10 μg/ml MCM2, 0.1 μg/ml cdc7/Dbf4 for 90 min at room temperature. Free ADP from the ATP hydrolysis reaction was detected by the monoclonal ADP antibody labeled with Eu^3+-Cryptate, which competes with both native ADP and d2-coupled ADP. The TR-FRET signal was detected by EnVision (PerkinElmer Inc., MA, U.S.A.). Cdc7 kinase inhibitory rate (%) of the test compound was calculated by the following formula: Inhibitory rate(%)=(1−(count of test compound−blank)÷(control−blank))×100
The count of the solution reacted without addition of the compound was used as a “control”, and the count of the solution without the compound and cdc7/Dbf4 was used as a “blank”.

[2] = test system: Colo205 cells; experiment: Determination of cell proliferation inhibitory activity (Cell Titer-Glo Luminescent Cell Viability Assay); type: cell-based; conditions: Homo sapiens, COLO 205, 72 h, test compound 1 μM, incubation for 3 days, cellular ATP content, read-out: Inhibitory rate (%) at 1 μM
Procedure: Cell proliferation was measured by using Cell Titer-Glo Luminescent Cell Viability Assay (Promega, Wis., USA,). The CellTiter-Glo Luminescent Cell Viability Assay is a homogeneous method of determining the number of viable cells in culture based on quantitation of the ATP present, which signals the presence of metabolically active cells. Colo205 cells (American Type Culture Collection) were sown at 3.0×10^3 cells/well to a 96 well microplate and cultured in an incubator (37° C., 5% carbon dioxide). On the following day, 100 μl of a solution of each test compound, which was previously diluted, was added. According to the instruction manual from vender, cellular ATP content of final treatment day was measured. After incubation for 3 days, solution of Cell Titer-Glo Luminescent Cell Viability Assay was added to each well and incubated for approximately 15 min at room temperature. Luminescence of each well was measured by ARVO Light (PerkinElmer Inc., MA, USA). Taking as 100% the ATP content for the none compound treatment control group, the ratio of the residual ATP content for each treatment group was determined.

T1 sequence (O00311 whole entry): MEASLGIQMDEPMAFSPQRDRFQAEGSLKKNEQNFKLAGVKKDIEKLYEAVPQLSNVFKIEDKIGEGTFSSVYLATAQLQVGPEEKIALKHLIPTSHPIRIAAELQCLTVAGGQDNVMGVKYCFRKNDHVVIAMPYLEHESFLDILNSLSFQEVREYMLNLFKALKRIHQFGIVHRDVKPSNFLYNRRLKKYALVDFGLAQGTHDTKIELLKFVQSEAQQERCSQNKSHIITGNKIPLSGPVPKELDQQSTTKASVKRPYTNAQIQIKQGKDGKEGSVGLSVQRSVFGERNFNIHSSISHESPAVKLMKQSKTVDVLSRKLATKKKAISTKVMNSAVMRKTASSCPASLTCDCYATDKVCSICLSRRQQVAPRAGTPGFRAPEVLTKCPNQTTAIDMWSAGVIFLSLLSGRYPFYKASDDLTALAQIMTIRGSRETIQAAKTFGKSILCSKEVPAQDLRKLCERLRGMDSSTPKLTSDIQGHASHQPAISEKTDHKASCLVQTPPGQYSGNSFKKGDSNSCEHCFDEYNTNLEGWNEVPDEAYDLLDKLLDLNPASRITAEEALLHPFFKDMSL
T1 sequence (Q9UBU7 whole entry partner): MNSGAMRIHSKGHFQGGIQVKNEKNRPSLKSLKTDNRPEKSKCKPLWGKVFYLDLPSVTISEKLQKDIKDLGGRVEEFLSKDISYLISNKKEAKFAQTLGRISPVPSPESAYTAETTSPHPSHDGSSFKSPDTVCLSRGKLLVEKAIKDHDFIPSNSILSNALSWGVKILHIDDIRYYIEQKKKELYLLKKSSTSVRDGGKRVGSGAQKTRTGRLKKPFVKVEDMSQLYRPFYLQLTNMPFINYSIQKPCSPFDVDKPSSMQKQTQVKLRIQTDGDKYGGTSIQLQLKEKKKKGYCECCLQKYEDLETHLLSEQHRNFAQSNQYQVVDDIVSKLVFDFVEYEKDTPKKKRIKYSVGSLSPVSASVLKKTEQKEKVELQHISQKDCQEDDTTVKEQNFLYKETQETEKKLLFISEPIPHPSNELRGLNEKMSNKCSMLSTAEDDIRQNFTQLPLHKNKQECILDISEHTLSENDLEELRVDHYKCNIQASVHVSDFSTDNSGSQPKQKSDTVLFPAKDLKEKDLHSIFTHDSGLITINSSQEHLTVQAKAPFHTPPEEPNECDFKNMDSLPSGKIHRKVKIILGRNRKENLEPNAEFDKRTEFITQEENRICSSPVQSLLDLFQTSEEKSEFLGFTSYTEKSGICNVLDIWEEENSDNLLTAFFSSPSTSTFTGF

inhibition at 1 µM [1]	SMILES	inhibition at 1 µM [2]
98.5%	O=C1NC2(CCCCC2)Nc2cc(-c3ccncc3)sc21 [Example 6, 6′-(pyridin-4-yl)-1′H-spiro[cyclohexane-1,2′-thieno[3,2-d]pyrimidin]-4′(3′H)-one]	
103%	O=C1NC2(CCN(C(=O)OCc3ccccc3)CC2)Nc2cc(-c3ccncc3)sc21 [Example 9, benzyl 4′-oxo-6′-(pyridin-4-yl)-3′,4′-dihydro-1′H-spiro[piperidine-4,2′-thieno[3,2-d]pyrimidine]-1-carboxylate]	
97.6%	CCN1c2cc(-c3ccncc3)sc2C(=O)NC1(C)C [Example 15, 1-ethyl-2,2-dimethyl-6-(pyridin-4-yl)-2,3-dihydrothieno[3,2-d]pyrimidin-4(1H)-one]	
97.1%	CC1(CC(F)(F)F)NC(=O)c2sc(-c3ccncc3)cc2N1 (stereo not shown) [Example 22, 2-methyl-6-(pyridin-4-yl)-2-(2,2,2-trifluoroethyl)-2,3-dihydrothieno[3,2-d]pyrimidin-4(1H)-one]	
101%	CCN1c2cc(-c3ccncc3)sc2C(=O)NC12CCCC2 [Example 27, 1′-ethyl-6′-(pyridin-4-yl)-1′H-spiro [cyclopentane-1,2′-thieno[3,2-d]pyrimidin]-4′(3′H)-one]	59.6%
104%	CC1(C)NC(=O)c2sc(-c3cn[nH]c3)cc2N1 [Example 34, 2,2-dimethyl-6-(1H-pyrazol-4-yl)-2,3-dihydrothieno[3,2-d]pyrimidin-4(1H)-one]	
101%	Cc1[nH]ncc1-c1cc2c(s1)C(=O)NC(C)(CC(F)(F)F)N2C (stereo not shown) [Example 104, 1,2-dimethyl-6-(5-methyl-1H-pyrazol-4-yl)-2-(2,2,2-trifluoroethyl)-2,3-dihydrothieno[3,2-d]pyrimidin-4(1H)-one]	62.9%
	CCN1c2cc(-c3cn[nH]c3C)sc2C(=O)NC1(C)C [Example 114, 1-ethyl-2,2-dimethyl-6-(5-methyl-1H-pyrazol-4-yl)-2,3-dihydrothieno[3,2-d]pyrimidin-4(1H)-one]	67.4%
	Cc1[nH]ncc1-c1cc2c(s1)C(=O)NC(C)(C)N2CC(F)F [Example 115, 1-(2,2-difluoroethyl)-2,2-dimethyl-6-(5-methyl-1H-pyrazol-4-yl)-2,3-dihydrothieno[3,2-d]pyrimidin-4(1H)-one]	66.1%
91.8%	Cc1[nH]ncc1-c1cc2c(s1)C(=O)NC1(CCCCC1F)N2 (stereo not shown) [Example 122, 2-fluoro-6′-(5-methyl-1H-pyrazol-4-yl)-1′H-spiro [cyclohexane-1,2′-thieno[3,2-d]pyrimidin]-4′(3′H)-one]	48.9%

Reference: patent US8691828B2, “Thienopyrimidine as CDC7 kinase inhibitors” (Takeda Pharmaceutical Company Limited, priority 2009, dated 2014)
